# Source: PubChem BioAssay (NCI)
#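 Briefly, cells in 96-well plates were exposed to five compound concentrations for 48 h, and endpoints were estimated by linear interpolation. GI50 is the concentration that inhibits growth by half. TGI marks complete inhibition of growth.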 Where a SMILES comes first, the peptide text is derived from it.
# Assays:
# Experiment in all cases: NCI anticancer screen, dose series, 48 h
# OVCAR-3 ovarian = system: OVCAR-3 ovarian
# UACC-62 melanoma = system: UACC-62 melanoma
# M14 melanoma = system: M14 melanoma
# ACHN renal = system: ACHN renal
# NCI-H522 lung = system: NCI-H522 lung
# RPMI-8226 leukemia = system: RPMI-8226 leukemia
# SR leukemia = system: SR leukemia
# SF-539 CNS = system: SF-539 CNS
# CCRF-CEM leukemia = system: CCRF-CEM leukemia
# SF-295 CNS = system: SF-295 CNS
# HCC-2998 colon = system: HCC-2998 colon
SMILES,TGI (OVCAR-3 ovarian) [µM],TGI (UACC-62 melanoma) [µM],TGI (M14 melanoma) [µM],TGI (ACHN renal) [µM],TGI (NCI-H522 lung) [µM],TGI (RPMI-8226 leukemia) [µM],TGI (SR leukemia) [µM],TGI (SF-539 CNS) [µM],TGI (CCRF-CEM leukemia) [µM],TGI (SF-295 CNS) [µM],TGI (HCC-2998 colon) [µM],GI50 (HCC-2998 colon) [µM],GI50 (OVCAR-3 ovarian) [µM],GI50 (UACC-62 melanoma) [µM],GI50 (ACHN renal) [µM],GI50 (RPMI-8226 leukemia) [µM],GI50 (SR leukemia) [µM],GI50 (SF-539 CNS) [µM],GI50 (CCRF-CEM leukemia) [µM],GI50 (SF-295 CNS) [µM]
CCC(C)C(NC(=O)C1CCCN1C(=O)C(CC(C)C)NC(=O)C(CC(C)C)NC(=O)C(N)CC(C)C)C(=O)NC(C(=O)NCC(=O)NC(CC(N)=O)C(=O)NC(CC(C)C)C(=O)NC(CC(C)C)C(=O)NC(CC(C)C)C(N)=O)C(C)C (stereo unspecified) (H-LLLPIVGNLLL-NH2; configuration not given here),> 50,> 50,> 50,> 50,> 50,> 50,> 50,> 50,> 50,> 50,–,–,–,–,–,–,–,–,–,–
COC(=O)C1=C(O)CCCC(CCC(C)=O)=C1,> 100,> 100,> 100,> 100,31.1,> 100,66,61.1,25.2,> 100,> 100,–,–,–,–,–,–,–,–,–
CC(=O)c1ccc2c(c1)N(CCCN1CCN(CCO)CC1)c1ccccc1C2,29.5,23,28.3,34.8,31.2,30.1,–,33.1,28.2,31.8,–,–,–,–,–,–,–,–,–,–
C1=CC(=[N+]2N=C(c3ccccc3)CC2c2ccccc2)C=CC1=C1SC(c2ccccc2)(c2ccccc2)c2ccccc21 (stereo unspecified),> 100,> 100,> 100,> 100,–,–,> 100,> 100,> 100,> 100,> 100,–,–,–,–,–,–,–,–,–
NC(=S)N1N=C(c2ccccc2O)CC1c1ccccc1 (stereo unspecified),31.2,29.7,24.5,61.8,18.8,39.3,–,36.1,> 100,29.2,27.3,–,–,–,–,–,–,–,–,–
CCCCCOC(=O)c1cc2cc(CCl)ccc2oc1=O,19.5,5.91,34.8,8.42,1.3,> 80.1,67.5,> 93.3,> 81.1,60.4,28.1,–,–,–,–,–,–,–,–,–
COc1cc2c(cc1C)NC(=O)/C2=C/c1c(Cl)n(-c2ccccc2)c2ccccc12,28,73.5,63.1,> 100,32.2,52.8,32.9,24.3,30.8,49,24.2,–,–,–,–,–,–,–,–,–
CCCN1C(=O)CSC1=Nc1ccc2cc3ccc(N=C4SCC(=O)N4CCC)cc3nc2c1,67.6,> 100,–,> 100,–,> 100,> 100,> 100,> 100,> 100,> 100,> 100,22,85.9,29.6,7.4,98.2,59.2,> 100,30
COC(OC)C1OC(CO)C(n2cc(F)c(=O)[nH]c2=O)C1O (stereo unspecified),> 100,> 100,> 100,> 100,> 100,> 100,–,> 100,> 100,> 100,> 100,–,–,–,–,–,–,–,–,–
Cc1cc(=O)[nH]c(/N=C(\N)Nc2ccc(Cl)cc2)n1,> 100,> 100,> 100,> 100,> 100,> 100,> 100,–,> 100,> 100,> 100,–,–,–,–,–,–,–,–,–
CC(C)C1OC(=O)/C=C/C=C/C=C/C=C/C=C/CC(O)C(C)C(O)CC(O)CC(O)CC(O)CC(O)CC(O)CC(O)/C=C/C1C (stereo unspecified),> 100,> 100,> 100,> 100,> 100,> 100,> 100,> 100,> 100,> 100,> 100,–,–,–,–,–,–,–,5.11,–
O=S(=O)(O)c1cc(N=[N+]([O-])c2cc(S(=O)(=O)O)c3ccccc3c2)cc2ccccc12,28.2,> 100,> 100,> 100,65.9,> 100,> 100,60.2,> 100,> 100,> 100,–,–,–,–,–,–,–,–,–
O=[N+]([O-])c1ccc2c(c1)nc(Cc1ccc(Cl)cc1)n2C[C@@H]1CCCN2CCCCC12 (stereo partly specified),30.8,28.7,25.9,29,27.4,> 100,> 100,35.1,> 44.5,29.3,18.8,–,–,–,–,–,–,–,–,–
Cc1nc2ncn3c(c-2c1Cc1ccccc1)NC=C(O)N3,> 100,> 100,> 100,> 100,> 100,> 100,–,> 100,> 100,> 100,> 100,–,–,–,–,–,–,–,–,–
CC(=O)Oc1ccc(CO)cc1OC(C)=O,> 100,> 100,> 100,> 100,> 100,> 100,> 100,–,76.1,> 100,–,–,–,–,–,–,–,–,–,–
O=c1[nH]c(Nc2ccc(Cl)cc2)nc2nc[nH]c12,> 100,> 100,> 100,> 100,> 100,> 100,> 100,> 100,–,> 100,> 100,–,–,–,–,–,–,–,–,–
CSCCC(NC(=O)OCc1ccccc1)P(=O)(O)c1ccccc1 (stereo unspecified),> 100,–,> 100,> 100,> 100,> 100,> 100,–,> 100,> 100,> 100,–,–,–,–,–,–,–,–,–
